# Laboratory results as given in PubChem BioAssay AID1919009 (Molecular Pharmacology Branch, DTP, NCI, 2023).
# Tested on: K24384-001-R-PDC complex spheroid growth
# Test: Anticancer human tumor K24384-001-R-PDC patient-derived pancreatic adenocarcinoma cell line growth inhibition [AhR]
# Conditions: for IC50: curve of first compound; for viability, T/C: stronger effect = lower value
# How it was run: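 Complex tumor spheroids co-cultured with HUVEC and human MSC stroma; AhR antagonists tested in combination with standard-of-care and investigational agents. Top concentration at or near clinical Cmax (else 10 microM), half-log dilutions; growth expressed as percent test/control.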
# [1] = second compound 0.1 µM, first compound 0.0316 µM
# [2] = second compound 0.1 µM, first compound 0.1 µM
# [3] = second compound 0.1 µM, first compound 0.316 µM
# [4] = second compound 0.1 µM, first compound 1 µM
# [5] = second compound 0.1 µM, first compound 3.16 µM
# [6] = second compound 0.1 µM, first compound 10 µM
# [7] = second compound 0.316 µM, first compound 0.0316 µM
# [8] = second compound 0.316 µM, first compound 0.1 µM
# [9] = second compound 0.316 µM, first compound 0.316 µM
# [10] = second compound 0.316 µM, first compound 1 µM
# [11] = second compound 0.316 µM, first compound 3.16 µM
# [12] = second compound 0.316 µM, first compound 10 µM
# [13] = second compound 1 µM, first compound 0.0316 µM
# [14] = second compound 1 µM, first compound 0.1 µM
# [15] = second compound 1 µM, first compound 0.316 µM
# [16] = second compound 1 µM, first compound 1 µM
# [17] = second compound 1 µM, first compound 3.16 µM
# [18] = second compound 1 µM, first compound 10 µM
# [19] = second compound 3.16 µM, first compound 0.0316 µM
# [20] = second compound 3.16 µM, first compound 0.1 µM
# [21] = second compound 3.16 µM, first compound 0.316 µM
# [22] = second compound 3.16 µM, first compound 1 µM
# [23] = second compound 3.16 µM, first compound 3.16 µM
# [24] = second compound 3.16 µM, first compound 10 µM
# [25] = second compound 10 µM, first compound 0.0316 µM
# [26] = second compound 10 µM, first compound 0.1 µM
# [27] = second compound 10 µM, first compound 0.316 µM
# [28] = second compound 10 µM, first compound 1 µM
# [29] = second compound 10 µM, first compound 3.16 µM
# [30] = second compound 10 µM, first compound 10 µM
# 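For viability, T/C in this document: percent of DMSO vehicle-treated spheroid viability set as 100%.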
Structure (SMILES),IC50 (second compound 0.1 µM) [µM],IC50 (second compound 0.316 µM) [µM],IC50 (second compound 1 µM) [µM],IC50 (second compound 3.16 µM) [µM],IC50 (second compound 10 µM) [µM],"viability, T/C [1] [%]","viability, T/C [2] [%]","viability, T/C [3] [%]","viability, T/C [4] [%]","viability, T/C [7] [%]","viability, T/C [8] [%]","viability, T/C [9] [%]","viability, T/C [10] [%]","viability, T/C [13] [%]","viability, T/C [14] [%]","viability, T/C [15] [%]","viability, T/C [16] [%]","viability, T/C [19] [%]","viability, T/C [20] [%]","viability, T/C [21] [%]",other results
CC(C)c1c(-c2ccccc2)nc2c(C#N)c[nH]n2c1=O + Cc1cncc(-c2nc(NCCc3c[nH]c4ccccc34)c3ncn(C(C)C)c3n2)c1,> 10,> 10,> 10,> 10,< 0.0316,108,110,106,102,104,101,115,95.7,108,110,94.5,95.1,83.7,91.4,82.6,"viability, T/C [5]: 85.6%; viability, T/C [6]: 85.8%; viability, T/C [11]: 87.5%; viability, T/C [12]: 77.3%; viability, T/C [17]: 99%; viability, T/C [18]: 69.1%; viability, T/C [22]: 61.9%; viability, T/C [23]: 70.4%; viability, T/C [24]: 77.3%; viability, T/C [25]: 7.78%; viability, T/C [26]: 6.78%; viability, T/C [27]: 7.75%; viability, T/C [28]: 8.55%; viability, T/C [29]: 7.71%; viability, T/C [30]: 10.2%"
CC1COCCN1c1cc(-c2ccnn2C)c2ccnc(-c3ccn[nH]3)c2n1 (stereo not given) + Cc1cncc(-c2nc(NCCc3c[nH]c4ccccc34)c3ncn(C(C)C)c3n2)c1,0.0739,0.0933,0.0905,0.0552,< 0.00316,65.3,46.1,25.7,22.2,89.1,46.4,31.8,20.5,87.3,46.9,24.8,24.6,69,30.1,27.3,"viability, T/C (second compound 0.1 µM, first compound 0.00316 µM): 88.3%; viability, T/C (second compound 0.1 µM, first compound 0.01 µM): 81.3%; viability, T/C (second compound 0.316 µM, first compound 0.00316 µM): 95.6%; viability, T/C (second compound 0.316 µM, first compound 0.01 µM): 95.8%; viability, T/C (second compound 1 µM, first compound 0.00316 µM): 94.5%; viability, T/C (second compound 1 µM, first compound 0.01 µM): 104%; viability, T/C (second compound 3.16 µM, first compound 0.00316 µM): 73%; viability, T/C (second compound 3.16 µM, first compound 0.01 µM): 88.3%; viability, T/C [22]: 27.7%; viability, T/C (second compound 10 µM, first compound 0.00316 µM): 7.24%; viability, T/C (second compound 10 µM, first compound 0.01 µM): 7.46%; viability, T/C [25]: 8.32%; viability, T/C [26]: 5.4%; viability, T/C [27]: 4.59%; viability, T/C [28]: 6.27%"
COc1ccc([C@@H](O)c2cc(-c3ncnc4cc(N5CCOCC5)ccc34)c(F)cc2Cl)nn1 + Cc1cncc(-c2nc(NCCc3c[nH]c4ccccc34)c3ncn(C(C)C)c3n2)c1,4.41,2.82,2.82,1.94,< 0.0316,88,93.3,93.2,68.5,109,106,86.2,68.4,84.1,94.5,118,96.7,76.8,98.2,71.1,"viability, T/C [5]: 57.8%; viability, T/C [6]: 38.4%; viability, T/C [11]: 48%; viability, T/C [12]: 36.6%; viability, T/C [17]: 44.9%; viability, T/C [18]: 33.9%; viability, T/C [22]: 54.7%; viability, T/C [23]: 50.7%; viability, T/C [24]: 31.9%; viability, T/C [25]: 9.83%; viability, T/C [26]: 8.38%; viability, T/C [27]: 6.49%; viability, T/C [28]: 8.45%; viability, T/C [29]: 9.55%; viability, T/C [30]: 13.7%"
